Laboratory results from patent publication EP0226513A1, “Peptides capable of inhibiting interactions between antigens and lymphocytes T4, products derived therefrom and their applications” (INSTITUT PASTEUR, priority 1985, dated 1987).
Where no end group is shown, it is not given here.

Tests used:
[1] = test system: interactions entre les macrophages et les lymphocytes auxiliaires (lymphocytes T4) et entre les lymphocytes T4 et les lymphocytes B; assay: In vitro cell interaction tests in the system of FISHER et al (influenza virus); assay type: cell-based; conditions: individually or in synergy tests
[2] = test system: lymphocytes T, lymphocytes B, monocytes; assay type: cell-based, humain; conditions: result in words; b210: peptides of different length compared, 0,1-10 µg/ml
lymphocytes T, monocytes = assay: Proliferation after separate preincubation of purified T lymphocytes and monocytes with peptides or antibodies (synergy of inhibition); assay type: cell-based, humain; conditions: T lymphocytes preincubated with the labelled substance, monocytes preincubated with "T₄-12"; sub-inhibitory concentrations
Protocol: Les monocytes sont obtenus après adhérence des cellules mononucléées (10⁷ /ml) sur boîte de Pétri (Corning) pendant une heure à 37°C. Ces boîtes de Pétri ont été préalablement incubées à 4°C avec du SVF décomplémenté, durant la nuit. Après avoir récupéré les cellules non adhérentes, les cellules adhérentes sont dé-tachées avec un barreau caoutchouté (rubber policeman) et par un pipettage vigoureux. Après deux lavages, elles sont irradiées à 4000 rads (IBL 137, source CS-137, CEA).
Les monocytes restants sont séparés des cellules non adhérentes par un traitement à la L-méthylleucine ester (5.10⁶ /ml, 5 mM final, Sigma) 40 minutes à tempé-rature ambiante (18). La réaction est arrêtée par addition de sérum AB humain (10 % final et lavages à froid).
Les lymphocytes T et B sont séparés par la technique des rosettes E. Les cellules T étant capables de former des rosettes en présence de globules rouges de mouton sensibilisés à la neuraminidase, après une incubation d'une heure à 0°C. Les cellules formant rosettes (E⁺) seront séparées des cellules ne formant pas rosettes (E⁻ ou B) par sédimentation sur gradient Ficoll-Hypaque. Les globules rouges de mouton sont lysés par choc hypotonique.
d'incubation des populations lymphoïdes purifiées avec les peptides ou des anticorps monoclonaux spécifiques des molé-cules T₄ et HLA-DR ont été effectuées. […]

lymphocytes T = assay: T-lymphocyte proliferation test induced by influenza virus A/Bangkok, fresh cells (tritiated thymidine incorporation); assay type: cell-based, humain; conditions: result in words

Compound | capacité d'inhiber in vitro les interactions entre les macrophages et les lymphocytes T4 et entre les lymphocytes T4 et les lymphocytes B [1] | inhibition de la production d'anticorps anti-influenza [2] | synergie d'inhibition de la prolifération (lymphocytes T, monocytes) | inhibition de la prolifération spécifique du virus influenza des lymphocytes T (lymphocytes T)
CC(C)[C@H](N)C(=O)N[C@@H](CCCNC(=N)N)C(=O)N[C@@H](Cc1ccccc1)C(=O)N[C@@H](CC(=O)O)C(=O)N[C@@H](CO)C(=O)N[C@@H](CC(=O)O)C(=O)O [XIII, H₂N-VRFDSD-OH] | capables | – | – | –
LRFDSD [XIV, H₂N―――LRFDSD―――OH] | capables | – | – | –
LRFDSDL [DR-7, H₂N-LRFDSDL-OH] | – | puis and intermédiaires | intermédiaire | intermédiaires
